Values of other authors, collected in patent US7897154B2, “Dermal drops” (ABR, LLC, priority 2006, dated 2011).

Tests used:
[1] = animal models of non-insulin-dependent diabetes
[2] = test system: H. ras transformed rat2 cells

Substance: dehydrotrametenolic acid [DHTA]
- pre-adipocyte differentiation (pre-adipocyte): induce pre-adipocyte differentiation
- sensitization to insulin [1]: sensitize animal models of non-insulin-dependent diabetes to insulin
- apoptosis [2]: induce apoptosis
- growth [2]: inhibit the growth of H. ras
